Experimental data taken from patent publication US20060211684A1, “Use of alpha-2 adrenergic receptor agonists” (Perlegen Sciences, Inc., priority 2005, published 2006).
Read-outs that look alike come from different tables or passages of the source.

Legend:
[1] = after ingestion; cited from earlier work
[2] = cited from earlier work
[3] = cited from earlier work; remark: listed apart in the source
[4] = test system: transverse aortic constricted α2C−/−mice
Experimental: This example tests whether treatment of α2C−/−knockout transgenic mice with the partial α2A agonist, clonidine, improves cardiac function and reduces ventricular hypertrophy after left ventricular pressure overload. In other words, the example tests whether clonidine-mediated activation of α2A-receptors compensates for the loss of functional α2C. The mice used in this experiment are described in more detail in Brede et al., Circulation 106, 2491-2496 (2002). […] Mice were treated with 200 μg/kg/day clonidine or vehicle for four weeks. Three mice were treated with clonidine and three with vehicle in the initial experiment.

[5] = initial experiment, 200 μg/kg/day for four weeks, three mice clonidine, three vehicle, FIG. 1
[6] = second experiment, 200 μg/kg/day for 4 weeks via osmotic minipumps, n=5 clonidine, n=6 vehicle

Clc1cccc(Cl)c1NC1=NCCN1 [clonidine, N-(2,6-dichlorophenyl)-4,5-dihydro-1 H-imidazol-2-amine]
onset of antihypertensive effects [1]: 30 to 60 min
time to peak plasma concentrations ([2]; after a single oral dose): 3 to 5 h
CNS penetration ([2]; because of lipid solubility): excellent
time to steady state levels ([2]; dermal application): several days
absorption from the gastrointestinal tract ([2]; in vivo): rapidly absorbed
elimination ([2]; in vivo): excreted unchanged in the urine and metabolized by the liver
side effects ([3]; therapeutic doses typically used (0.2-0.9 mg/day)): dryness of the mouth, dizziness, sedation, and constipation
toxic effects ([3]; toxic doses, children and adults): serious cardiopulmonary instability and central nervous system depression
hypertrophy ([4]; FIGS. 1 and 2): prevents and reduces
left ventricular systolic pressures ([4]; FIGS. 1 and 2): slightly reduced
ventricular contractility ([4]; FIGS. 1 and 2): maintained
contractility of the heart [4, 5]: did not effect
left ventricular systolic pressure [4, 5]: reduced
ventricular hypertrophy [4, 5]: reduced
contractility of the heart [4, 6]: did not effect
left ventricular systolic pressure [4, 6]: reduced
ventricular hypertrophy [4, 6]: reduced
